Where two headings read alike, the source gives them in different places.
Legend:
[1] = system: 5HT2A/2C mediated elevations of prolactin levels; conditions: known from literature; cited from earlier work
[2] = rhesus monkeys; cited from earlier work
5-HT2A/D2 = 5-HT2A/D2 receptor affinity ratio; type: binding, human; conditions: Table 2; affinity ratio from data of Table 1
5-HT2C/5-HT2A = 5-HT2C/5-HT2A receptor affinity ratio; type: binding, human; conditions: Table 2; affinity ratio from data of Table 1
5-HT2C/D2 = 5-HT2C/D2 receptor affinity ratio; type: binding, human; conditions: Table 2; affinity ratio from data of Table 1
H1/D2 = H1/D2 receptor affinity ratio; type: binding, human; conditions: Table 2; affinity ratio from data of Table 1
5-HT1A receptor [3] = biological target: 5-HT1A receptor (Homo sapiens, UniProt P08908); conditions: cited from earlier work
5-HT3 receptor = 5-HT3 receptor (Homo sapiens, UniProt P46098); conditions: cited from earlier work
Sequence of 5-HT3 receptor (P46098 24-478): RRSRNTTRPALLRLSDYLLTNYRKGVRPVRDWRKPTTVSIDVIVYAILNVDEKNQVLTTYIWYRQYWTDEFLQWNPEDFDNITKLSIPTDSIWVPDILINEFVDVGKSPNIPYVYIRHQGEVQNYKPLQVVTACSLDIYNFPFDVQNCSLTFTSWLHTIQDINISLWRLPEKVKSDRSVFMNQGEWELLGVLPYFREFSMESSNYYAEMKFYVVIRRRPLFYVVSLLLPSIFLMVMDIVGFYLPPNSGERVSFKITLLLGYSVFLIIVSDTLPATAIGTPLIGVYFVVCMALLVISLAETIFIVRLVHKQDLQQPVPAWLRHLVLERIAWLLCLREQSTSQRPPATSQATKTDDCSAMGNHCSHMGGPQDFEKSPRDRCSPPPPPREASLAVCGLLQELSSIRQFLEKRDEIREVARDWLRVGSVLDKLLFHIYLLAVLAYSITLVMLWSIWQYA

5-HT6 receptor [4] = biological target: 5-HT6 receptor (Rattus norvegicus, UniProt P31388); conditions: cited from earlier work
Sequence of 5-HT6 receptor (Rattus norvegicus, UniProt P31388) (P31388 whole entry): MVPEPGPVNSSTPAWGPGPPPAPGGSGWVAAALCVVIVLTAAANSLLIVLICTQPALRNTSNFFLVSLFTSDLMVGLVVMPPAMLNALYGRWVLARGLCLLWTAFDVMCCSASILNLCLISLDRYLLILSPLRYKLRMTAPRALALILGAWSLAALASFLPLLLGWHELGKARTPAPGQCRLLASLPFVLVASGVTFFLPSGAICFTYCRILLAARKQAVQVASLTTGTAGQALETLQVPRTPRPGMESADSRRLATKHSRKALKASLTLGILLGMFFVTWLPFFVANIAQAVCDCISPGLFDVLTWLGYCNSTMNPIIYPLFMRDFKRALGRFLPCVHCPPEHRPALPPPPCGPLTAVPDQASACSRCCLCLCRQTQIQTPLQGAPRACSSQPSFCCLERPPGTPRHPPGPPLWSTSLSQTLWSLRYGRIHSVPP

5-HT7 receptor = 5-HT7 receptor (Rattus norvegicus, UniProt P32305); conditions: cited from earlier work
Sequence of 5-HT7 receptor (P32305 whole entry): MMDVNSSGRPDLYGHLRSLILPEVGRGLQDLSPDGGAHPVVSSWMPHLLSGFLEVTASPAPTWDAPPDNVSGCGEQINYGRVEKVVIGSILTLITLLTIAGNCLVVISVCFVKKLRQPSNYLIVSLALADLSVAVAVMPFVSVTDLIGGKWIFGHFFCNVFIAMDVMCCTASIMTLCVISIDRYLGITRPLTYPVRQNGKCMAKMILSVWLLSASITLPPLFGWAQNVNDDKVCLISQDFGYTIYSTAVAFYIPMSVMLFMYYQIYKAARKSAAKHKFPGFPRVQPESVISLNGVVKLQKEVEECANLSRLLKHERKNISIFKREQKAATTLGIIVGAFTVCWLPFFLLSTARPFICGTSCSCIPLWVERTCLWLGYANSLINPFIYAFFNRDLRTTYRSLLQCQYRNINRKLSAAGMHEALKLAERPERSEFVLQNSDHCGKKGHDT

D1 dopamine receptor = D1 dopamine receptor (Homo sapiens, UniProt P21728); conditions: cited from earlier work
Sequence of D1 dopamine receptor (P21728 whole entry): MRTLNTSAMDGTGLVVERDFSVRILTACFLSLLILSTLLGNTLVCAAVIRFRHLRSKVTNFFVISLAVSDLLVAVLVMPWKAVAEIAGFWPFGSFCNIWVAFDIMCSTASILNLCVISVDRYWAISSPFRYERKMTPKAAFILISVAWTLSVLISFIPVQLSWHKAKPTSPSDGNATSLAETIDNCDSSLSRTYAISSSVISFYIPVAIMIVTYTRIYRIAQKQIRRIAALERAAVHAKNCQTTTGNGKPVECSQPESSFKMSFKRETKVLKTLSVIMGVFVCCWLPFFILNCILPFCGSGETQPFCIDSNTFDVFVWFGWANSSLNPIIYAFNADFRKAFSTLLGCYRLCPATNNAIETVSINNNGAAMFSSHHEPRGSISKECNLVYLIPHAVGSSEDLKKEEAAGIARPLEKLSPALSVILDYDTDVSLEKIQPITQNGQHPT

[5] = biological target: D2-S (short form of D2 receptor) (Homo sapiens, UniProt P14416); conditions: cited from earlier work
Sequence of D2-S (short form of D2 receptor) (P14416 1-414 isoform P14416-2): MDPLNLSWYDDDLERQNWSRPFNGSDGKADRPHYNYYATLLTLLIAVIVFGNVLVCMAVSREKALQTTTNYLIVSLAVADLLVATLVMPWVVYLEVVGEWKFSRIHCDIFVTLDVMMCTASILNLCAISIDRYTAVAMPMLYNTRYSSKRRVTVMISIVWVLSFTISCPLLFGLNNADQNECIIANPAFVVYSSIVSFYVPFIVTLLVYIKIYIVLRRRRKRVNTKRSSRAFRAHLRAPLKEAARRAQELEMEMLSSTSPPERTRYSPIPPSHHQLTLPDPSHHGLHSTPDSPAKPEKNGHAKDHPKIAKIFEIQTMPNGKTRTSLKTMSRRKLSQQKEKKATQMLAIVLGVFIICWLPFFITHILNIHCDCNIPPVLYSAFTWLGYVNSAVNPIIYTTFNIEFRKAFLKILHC

[6] = biological target: D2-L (long form of D2 receptor) (Homo sapiens, UniProt P14416); conditions: cited from earlier work
Sequence of D2-L (long form of D2 receptor) (P14416 whole entry): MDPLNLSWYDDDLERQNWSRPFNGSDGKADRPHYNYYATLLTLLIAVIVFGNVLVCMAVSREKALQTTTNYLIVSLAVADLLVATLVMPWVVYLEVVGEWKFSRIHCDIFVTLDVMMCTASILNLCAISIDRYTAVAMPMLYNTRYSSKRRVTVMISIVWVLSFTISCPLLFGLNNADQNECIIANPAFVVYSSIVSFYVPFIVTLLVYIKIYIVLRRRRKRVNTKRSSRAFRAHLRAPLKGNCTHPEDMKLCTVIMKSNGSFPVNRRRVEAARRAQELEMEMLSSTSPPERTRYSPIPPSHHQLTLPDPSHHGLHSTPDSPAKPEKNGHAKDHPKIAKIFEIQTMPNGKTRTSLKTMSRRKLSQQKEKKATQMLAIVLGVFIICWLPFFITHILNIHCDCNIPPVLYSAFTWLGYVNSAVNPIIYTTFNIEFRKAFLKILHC

D3 dopamine receptor = D3 dopamine receptor (Homo sapiens, UniProt P35462); conditions: cited from earlier work
Sequence of D3 dopamine receptor (P35462 whole entry): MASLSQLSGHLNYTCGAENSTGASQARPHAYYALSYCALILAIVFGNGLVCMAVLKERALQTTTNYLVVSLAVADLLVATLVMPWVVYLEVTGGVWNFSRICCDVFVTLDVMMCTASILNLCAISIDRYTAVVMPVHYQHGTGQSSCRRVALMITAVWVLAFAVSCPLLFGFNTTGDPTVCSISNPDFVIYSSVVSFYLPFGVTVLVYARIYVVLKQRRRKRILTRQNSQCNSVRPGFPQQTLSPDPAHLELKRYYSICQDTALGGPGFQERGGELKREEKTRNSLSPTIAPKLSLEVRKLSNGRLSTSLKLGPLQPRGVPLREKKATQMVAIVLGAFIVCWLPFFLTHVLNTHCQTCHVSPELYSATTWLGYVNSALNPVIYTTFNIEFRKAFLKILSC

[7] = biological target: mACh, muscarinic acetylcholine receptor; conditions: human; cited from earlier work
α1-adrenoceptor [8] = conditions: human; cited from earlier work
α2-adrenoceptor [9] = conditions: human; cited from earlier work
H1 histamine receptor = H1 histamine receptor (Homo sapiens, UniProt P35367); conditions: cited from earlier work
Sequence of H1 histamine receptor (P35367 whole entry): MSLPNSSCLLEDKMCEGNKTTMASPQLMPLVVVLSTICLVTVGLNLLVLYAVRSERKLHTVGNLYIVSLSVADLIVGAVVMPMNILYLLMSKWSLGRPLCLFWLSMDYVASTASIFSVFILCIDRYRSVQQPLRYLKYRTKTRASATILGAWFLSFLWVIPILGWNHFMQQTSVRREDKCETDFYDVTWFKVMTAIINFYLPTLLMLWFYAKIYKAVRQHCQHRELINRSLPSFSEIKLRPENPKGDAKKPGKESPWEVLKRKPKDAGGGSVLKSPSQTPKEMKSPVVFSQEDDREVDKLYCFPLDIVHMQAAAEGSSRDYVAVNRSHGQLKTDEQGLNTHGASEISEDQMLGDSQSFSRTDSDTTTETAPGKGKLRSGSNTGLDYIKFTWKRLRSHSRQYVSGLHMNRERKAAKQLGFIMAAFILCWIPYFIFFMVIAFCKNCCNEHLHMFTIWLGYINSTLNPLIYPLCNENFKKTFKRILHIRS

sigma, σ receptor [10] = conditions: human; cited from earlier work
[11] = system: 5-HT2C receptor relative to 5-HT2A and D2 receptors; assay: Relative 5-HT2C affinity (formula I, sum of 5-HT2C/5-HT2A and 5-HT2C/D2 affinity ratios)
5-HT1A receptor [12] = biological target: T1, 5-HT1A receptor (Rattus norvegicus, UniProt P19327); conditions: cited from earlier work
T1 sequence (P19327 1-422): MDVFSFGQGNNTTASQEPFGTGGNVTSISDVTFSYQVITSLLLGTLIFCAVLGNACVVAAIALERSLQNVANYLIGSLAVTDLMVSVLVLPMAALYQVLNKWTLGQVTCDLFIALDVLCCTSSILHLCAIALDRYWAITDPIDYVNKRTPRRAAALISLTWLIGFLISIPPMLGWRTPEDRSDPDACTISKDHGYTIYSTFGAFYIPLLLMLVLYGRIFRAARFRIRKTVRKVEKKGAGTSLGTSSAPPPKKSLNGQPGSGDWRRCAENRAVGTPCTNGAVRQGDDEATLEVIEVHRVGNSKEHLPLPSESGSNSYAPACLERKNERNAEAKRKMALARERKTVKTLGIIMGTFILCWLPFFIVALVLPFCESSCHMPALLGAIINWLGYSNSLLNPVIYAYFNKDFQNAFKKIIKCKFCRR

5-HT2C receptor [13] = biological target: T2, 5-HT2C receptor (Homo sapiens, UniProt P28335); conditions: cited from earlier work
T2 sequence (P28335 33-458): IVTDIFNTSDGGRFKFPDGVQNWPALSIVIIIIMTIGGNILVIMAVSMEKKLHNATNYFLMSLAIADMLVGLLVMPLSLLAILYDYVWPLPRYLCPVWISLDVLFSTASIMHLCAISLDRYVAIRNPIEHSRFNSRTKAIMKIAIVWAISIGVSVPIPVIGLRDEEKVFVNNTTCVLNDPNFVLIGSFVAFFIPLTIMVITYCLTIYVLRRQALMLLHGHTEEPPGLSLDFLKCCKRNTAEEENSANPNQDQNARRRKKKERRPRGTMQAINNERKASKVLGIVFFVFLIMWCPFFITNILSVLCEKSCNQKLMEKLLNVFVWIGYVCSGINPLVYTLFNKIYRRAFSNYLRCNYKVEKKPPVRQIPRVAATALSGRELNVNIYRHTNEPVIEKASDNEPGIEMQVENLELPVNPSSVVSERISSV

[14] = biological target: mACh, muscarinic acetylcholine receptor; conditions: rat; cited from earlier work
sigma, σ receptor [15] = conditions: rat; cited from earlier work
α1-adrenoceptor [16] = conditions: rat; cited from earlier work
α2-adrenoceptor [17] = conditions: rat; cited from earlier work
5-HT2A receptor = 5-HT2A receptor (Homo sapiens, UniProt P28223); conditions: Table 3; expressed as pKi or pKd values; known affinities; cited from earlier work
Sequence of 5-HT2A receptor (P28223 whole entry): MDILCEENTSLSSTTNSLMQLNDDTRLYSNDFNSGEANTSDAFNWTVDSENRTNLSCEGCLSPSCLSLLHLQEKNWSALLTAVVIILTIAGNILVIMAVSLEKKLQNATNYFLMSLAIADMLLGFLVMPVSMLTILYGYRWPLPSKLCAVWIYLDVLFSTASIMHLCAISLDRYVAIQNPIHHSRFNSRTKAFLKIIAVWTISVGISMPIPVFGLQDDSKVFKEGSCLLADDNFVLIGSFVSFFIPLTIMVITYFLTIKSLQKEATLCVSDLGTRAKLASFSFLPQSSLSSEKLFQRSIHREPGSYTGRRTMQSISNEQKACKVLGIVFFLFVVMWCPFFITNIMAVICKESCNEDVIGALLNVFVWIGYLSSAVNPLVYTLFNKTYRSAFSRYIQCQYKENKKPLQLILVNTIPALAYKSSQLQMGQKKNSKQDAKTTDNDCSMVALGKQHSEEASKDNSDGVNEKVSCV

D2 receptor = D2 receptor (Homo sapiens, UniProt P14416); conditions: Table 3; expressed as pKi or pKd values; known affinities; cited from earlier work
Sequence of D2 receptor (P14416 whole entry): as the sequence (P14416 whole entry) above

5-HT2C receptor [18] = biological target: T2, 5-HT2C receptor; conditions: active metabolite in man; U.S. Pat. No. 6,093,747; cited from earlier work
5-HT2C receptor [19] = biological target: 5-HT2C receptor (Rattus norvegicus, UniProt P08909); conditions: cited from earlier work
Sequence of 5-HT2C receptor (Rattus norvegicus, UniProt P08909) (P08909 33-460): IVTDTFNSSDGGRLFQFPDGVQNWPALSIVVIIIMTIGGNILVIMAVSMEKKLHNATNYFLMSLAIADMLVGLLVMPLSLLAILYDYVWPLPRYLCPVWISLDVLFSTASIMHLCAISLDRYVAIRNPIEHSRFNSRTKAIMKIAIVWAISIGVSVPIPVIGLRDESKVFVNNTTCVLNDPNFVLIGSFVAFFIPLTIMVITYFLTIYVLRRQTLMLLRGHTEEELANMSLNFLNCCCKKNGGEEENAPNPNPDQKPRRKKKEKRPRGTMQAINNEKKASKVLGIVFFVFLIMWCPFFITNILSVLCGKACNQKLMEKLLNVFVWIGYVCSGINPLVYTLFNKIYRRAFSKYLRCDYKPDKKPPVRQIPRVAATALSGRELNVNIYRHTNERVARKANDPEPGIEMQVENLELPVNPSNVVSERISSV

D4 dopamine receptor [20] = biological target: T3, D4 dopamine receptor (Homo sapiens, UniProt P21917); conditions: cited from earlier work
T3 sequence (P21917 1-419): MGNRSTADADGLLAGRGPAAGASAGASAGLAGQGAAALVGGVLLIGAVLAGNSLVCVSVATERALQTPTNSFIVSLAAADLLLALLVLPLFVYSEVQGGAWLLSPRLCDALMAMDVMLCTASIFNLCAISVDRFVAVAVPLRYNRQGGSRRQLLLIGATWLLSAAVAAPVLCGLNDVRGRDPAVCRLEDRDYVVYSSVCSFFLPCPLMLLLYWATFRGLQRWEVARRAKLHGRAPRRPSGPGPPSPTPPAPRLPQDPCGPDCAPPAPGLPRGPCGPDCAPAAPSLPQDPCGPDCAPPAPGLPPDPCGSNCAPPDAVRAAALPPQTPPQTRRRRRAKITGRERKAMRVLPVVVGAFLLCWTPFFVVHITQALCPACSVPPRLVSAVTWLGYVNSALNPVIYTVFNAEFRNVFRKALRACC

D4 dopamine receptor [21] = biological target: T4, D4 dopamine receptor (Rattus norvegicus, UniProt P30729); conditions: cited from earlier work
T4 sequence (P30729 1-387): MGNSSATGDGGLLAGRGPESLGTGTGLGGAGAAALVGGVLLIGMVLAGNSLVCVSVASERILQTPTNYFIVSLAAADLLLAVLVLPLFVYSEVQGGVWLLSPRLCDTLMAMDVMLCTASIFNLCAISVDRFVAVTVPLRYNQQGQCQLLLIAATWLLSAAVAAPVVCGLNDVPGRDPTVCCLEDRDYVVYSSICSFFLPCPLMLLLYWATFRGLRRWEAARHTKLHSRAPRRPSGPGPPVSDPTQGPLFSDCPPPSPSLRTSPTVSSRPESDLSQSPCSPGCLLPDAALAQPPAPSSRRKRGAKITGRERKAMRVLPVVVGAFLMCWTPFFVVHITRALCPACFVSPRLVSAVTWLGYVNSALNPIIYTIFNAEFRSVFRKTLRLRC

[22] = design: key: 1-high; 2-medium; 3-low probability; conditions: Table 4A; grading of probability from literature reports; cited from earlier work
[23] = design: key: 1-high; 2-medium; 3-low probability; conditions: Table 4A; grading of probability from literature reports; cited from earlier work; remark: listed apart in the source
[24] = Table 4A; grading of probability from literature reports; cited from earlier work
[25] = design: key: 1-high; 2-medium; 3-low probability; conditions: Table 4A; grading of probability from literature reports; cited from earlier work; remark: listed apart in the source
[26] = design: key to Weight Gain: 1-high; 2-medium; 3-low probability; conditions: cited from earlier work; for Weight Gain: Table 4A, grading of probability from literature reports
5-HT6 receptor [27] = biological target: 5-HT6 receptor (Homo sapiens, UniProt P50406); conditions: cited from earlier work
Sequence of 5-HT6 receptor (Homo sapiens, UniProt P50406) (P50406 whole entry): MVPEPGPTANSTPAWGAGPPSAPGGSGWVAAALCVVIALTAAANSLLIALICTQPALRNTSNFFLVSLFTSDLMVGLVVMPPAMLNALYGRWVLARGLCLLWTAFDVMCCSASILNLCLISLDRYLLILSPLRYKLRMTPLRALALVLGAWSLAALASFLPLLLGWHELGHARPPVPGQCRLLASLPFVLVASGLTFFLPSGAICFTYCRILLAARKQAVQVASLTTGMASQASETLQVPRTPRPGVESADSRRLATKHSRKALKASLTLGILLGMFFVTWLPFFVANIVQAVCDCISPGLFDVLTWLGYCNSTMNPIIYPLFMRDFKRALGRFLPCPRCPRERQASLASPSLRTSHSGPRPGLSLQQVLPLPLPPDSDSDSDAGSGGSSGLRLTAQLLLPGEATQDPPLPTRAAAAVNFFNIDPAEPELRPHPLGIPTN

sigma, σ receptor [28] = conditions: guinea-pig; cited from earlier work
[29] = Table 2, sum of affinity ratios from data of Table 1

CC(C)n1cc2c3c(cccc31)[C@H]1C[C@@H](C(=O)NC3CCCCC3)CN(C)[C@@H]1C2 [Amesergide, N-cyclohexyl-1-isopropyl-6-methyl-ergoline-8-carboxamide]
effect on 5HT2A/2C mediated elevations of prolactin levels induced by D-fenfluramine [1]: block 5HT2A/2C mediated elevations of prolactin levels
day of maximum values of parent compounds or metabolites (4-hydroxy and desisopropyl species) [2]: 35 days
day of minimum values of parent compounds or metabolites [2]: 365 days

CCNC(=O)N1CCN(CCCC(c2ccc(F)cc2)c2ccc(F)cc2)CC1 [Amperozide]
5-HT2A/D2 (5-HT2A/D2): 1.23
5-HT2C/5-HT2A (2C/2A) (5-HT2C/5-HT2A): 0.76
5-HT2C/D2 (2C/D2) (5-HT2C/D2): 0.92
H1/D2 (H1/D2): 1.08
5-HT1A affinity value (−logKi) (5-HT1A receptor [3]): 5.9^19
5-HT3 affinity value (−logKi) (5-HT3 receptor): <5^19
5-HT6 affinity value (−logKi) (5-HT6 receptor [4]): 7.2^2
5-HT7 affinity value (−logKi) (5-HT7 receptor): 6.3^2
D1 affinity value (−logKi) (D1 dopamine receptor): 5.1^19
D2-S affinity value (−logKi) [5]: 6.5^3
D2-L affinity value (−logKi) [6]: 6.4^3
D3 affinity value (−logKi) (D3 dopamine receptor): 6.6^3
mACh affinity value (−logKi) [7]: 6.3^19
α1 affinity value (−logKi) (α1-adrenoceptor [8]): 6.2^19
α2 affinity value (−logKi) (α2-adrenoceptor [9]): 5.5^19
H1 affinity value (−logKi) (H1 histamine receptor): 6.9^19
sigma affinity value (−logKi) (sigma, σ receptor [10]): 6.3^19
(2C/2A) + (2C/D2) [11, 29]: 1.67

COc1cc(C(C)=O)ccc1OCCCN1CCC(c2noc3cc(F)ccc23)CC1 [Iloperidone]
5-HT1A affinity value (−logKi) (5-HT1A receptor [12]): 6.8^18
5-HT2C affinity value (−logKi) (5-HT2C receptor [13]): 7.4^10
5-HT6 affinity value (−logKi) (5-HT6 receptor [4]): 7.4^10
5-HT7 affinity value (−logKi) (5-HT7 receptor): 7.7^10
D1 affinity value (−logKi) (D1 dopamine receptor): 6.7^10
D3 affinity value (−logKi) (D3 dopamine receptor): 8.1^10
mACh affinity value (−logKi) [14]: <5^17
sigma affinity value (−logKi) (sigma, σ receptor [15]): 7.5^17
α1 affinity value (−logKi) (α1-adrenoceptor [16]): 9.6^17
α2 affinity value (−logKi) (α2-adrenoceptor [17]): 7.5^17
(2C/2A) + (2C/D2) [11, 29]: 1.79

CNCCO[C@]1(c2ccccc2)C[C@H]2CC[C@]1(C)C2(C)C [N-Desmethyl-deramciclane, (1R,2S,4R)-(−)-2-phenyl-2-(methylaminoethoxy)-1,7,7-trimethyl-bicyclo[2.2.1]heptane]
5-HT2A Affinity (5-HT2A receptor): 7
D2 Affinity (D2 receptor): 7
5-HT2C receptor antagonism compared with deramciclane (5-HT2C receptor [18]): even more pronounced 5-HT2C receptor antagonism
Formula I Affinity Ratio ([11]; Table 3, calculated from known 5-HT2C/5-HT2A/D2 affinities): 2.20

CN1CC2c3ccccc3Oc3ccc(Cl)cc3C2C1 (centres unmarked) [ORG-5222]
5-HT2A/D2 (5-HT2A/D2): 1.10
5-HT2C/5-HT2A (2C/2A) (5-HT2C/5-HT2A): 1.02
5-HT2C/D2 (2C/D2) (5-HT2C/D2): 1.13
H1/D2 (H1/D2): 1.02
(2C/2A) + (2C/D2) [11, 29]: 2.15

O=c1[nH]c2ccccc2n1C1CCN(CCCC(c2ccc(F)cc2)c2ccc(F)cc2)CC1 [Pimozide]
5-HT2C affinity value (−logKi) (5-HT2C receptor [19]): <5^1
5-HT6 affinity value (−logKi) (5-HT6 receptor [4]): 7.2^2
D4 affinity value (−logKi) (D4 dopamine receptor [20]): 7.4^12
D4 affinity value (−logKi) (D4 dopamine receptor [21]): 7.5^4

Cc1nc2n(c(=O)c1CCN1CCC(c3noc4cc(F)ccc34)CC1)CCCC2 [Risperidone]
Extra-pyramidal side effects [22]: 1
Improvement negative symptoms [23]: 3
Improvement cognitive deficits [24]: 2-3
Increases prolactin levels [25]: 1
Weight Gain [26]: 2-3

OCCOCCN1CCN(C2=Nc3ccccc3Sc3ccccc32)CC1 [Seroquel]
Extra-pyramidal side effects [22]: 2
Improvement negative symptoms [23]: 3
Improvement cognitive deficits [24]: 2-3
Increases prolactin levels [25]: 3
Weight Gain [26]: 2
weight gain (in words) ([26]; text b109, literature reports): do cause weight gain

O=C1NCCN1CCN1CCC(c2cn(-c3ccc(F)cc3)c3ccc(Cl)cc23)CC1 [Sertindole]
5-HT1A affinity value (−logKi) (5-HT1A receptor [12]): 6.6^6
5-HT6 affinity value (−logKi) (5-HT6 receptor [27]): 9.13^19
D1 affinity value (−logKi) (D1 dopamine receptor): 6.89^19
mACh affinity value (−logKi) [7]: <5.6^19
α1 affinity value (−logKi) (α1-adrenoceptor [8]): 8.7^19
α2 affinity value (−logKi) (α2-adrenoceptor [9]): 6.5^19
sigma affinity value (−logKi) (sigma, σ receptor [28]): 6.9^6
Extra-pyramidal side effects [22]: 3
Improvement negative symptoms [23]: 2
Increases prolactin levels [25]: 3
Weight Gain [26]: 2-3
(2C/2A) + (2C/D2) ([11]; Table 4B): 1.91

— patent US20060229299A1, “5ht2c Receptor antagonists in the treatment of schizophrenia” (priority 2003, published 2006)
